Results: ChEMBL document CHEMBL4152208, “Synthesis and structure-activity relationships of quinolinone and quinoline-based P2X7 receptor antagonists and their anti-sphere formation activities in glioblastoma cells” (Eur J Med Chem, 2018)
Active and inactive are the calls of the source. The rule behind the calls is not given here.

Assays:
[1] = molecular target: T1, P2X purinoceptor 7 (Homo sapiens) (UniProt Q99572); experiment: Antagonist activity at human P2X7 receptor expressed in HEK293 cells assessed as inhibition of BzATP-induced EtBr uptake at 10 uM after 2 hrs by fluorescence assay relative to control; assay type: cell-based
T1 sequence (whole entry): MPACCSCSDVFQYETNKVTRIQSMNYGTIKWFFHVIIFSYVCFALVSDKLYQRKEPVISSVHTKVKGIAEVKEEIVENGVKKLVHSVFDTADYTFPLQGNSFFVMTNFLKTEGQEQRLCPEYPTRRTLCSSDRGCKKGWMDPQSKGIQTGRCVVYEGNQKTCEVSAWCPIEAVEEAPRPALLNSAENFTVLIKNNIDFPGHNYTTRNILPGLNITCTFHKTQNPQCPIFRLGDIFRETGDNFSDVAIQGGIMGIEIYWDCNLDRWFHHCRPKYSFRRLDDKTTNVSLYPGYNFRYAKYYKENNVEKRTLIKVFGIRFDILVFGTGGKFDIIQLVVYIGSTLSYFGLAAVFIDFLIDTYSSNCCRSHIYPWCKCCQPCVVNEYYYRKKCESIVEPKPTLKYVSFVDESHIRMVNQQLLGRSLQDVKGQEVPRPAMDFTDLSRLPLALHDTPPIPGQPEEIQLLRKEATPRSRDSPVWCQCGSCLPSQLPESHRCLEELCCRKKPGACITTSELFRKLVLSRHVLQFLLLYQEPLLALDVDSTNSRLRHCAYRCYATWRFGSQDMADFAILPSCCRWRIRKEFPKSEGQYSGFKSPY

[2] = molecular target: T1, P2X purinoceptor 7 (Homo sapiens); experiment: Antagonist activity at human P2X7 receptor expressed in HEK293 cells assessed as inhibition of BzATP-induced EtBr uptake at 1 uM after 2 hrs by fluorescence assay relative to control; assay type: cell-based
P2X purinoceptor 7 [3] = molecular target: T2, P2X purinoceptor 7 (Homo sapiens, UniProt Q99572); experiment: Antagonist activity at human P2X7 receptor expressed in HEK293 cells assessed as inhibition of BzATP-induced EtBr uptake after 2 hrs by fluorescence assay relative to control; assay type: cell-based
T2 sequence (Q99572 whole entry): T1 sequence (whole entry)

P2X purinoceptor 7 [4] = molecular target: T2, P2X purinoceptor 7; experiment: Antagonist activity at P2X7 in LPS/IFN gamma differentiated human THP-1 cells assessed as inhibition of BzATP-induced IL-1beta release preincubated for 30 mins followed by BzATP stimulation for 30 mins by ELISA; assay type: cell-based
[5] = molecular target: T3, P2X purinoceptor 1 (Homo sapiens) (UniProt P51575); experiment: Antagonist activity at human P2X1 receptor expressed in 1321N1 cells assessed as inhibition of ATP-induced calcium flux at 1 uM measured for 30 secs at 0.4 secs intervals by Flou-4-AM dye based fluorescence assay relative to control; assay type: cell-based
T3 sequence (whole entry): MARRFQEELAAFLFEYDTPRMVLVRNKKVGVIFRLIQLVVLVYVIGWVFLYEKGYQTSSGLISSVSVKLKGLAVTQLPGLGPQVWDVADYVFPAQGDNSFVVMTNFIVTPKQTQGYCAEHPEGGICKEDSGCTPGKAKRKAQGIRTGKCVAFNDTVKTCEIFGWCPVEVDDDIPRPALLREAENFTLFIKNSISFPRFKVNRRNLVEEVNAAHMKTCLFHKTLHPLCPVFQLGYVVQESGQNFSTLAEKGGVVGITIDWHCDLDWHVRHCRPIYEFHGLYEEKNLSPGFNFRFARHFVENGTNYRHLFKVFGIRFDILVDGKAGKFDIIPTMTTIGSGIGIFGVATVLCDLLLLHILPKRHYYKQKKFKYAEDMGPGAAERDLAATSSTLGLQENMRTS

[6] = molecular target: T4, P2X purinoceptor 2 (Homo sapiens) (UniProt Q9UBL9); experiment: Antagonist activity at human P2X2 receptor expressed in 1321N1 cells assessed as inhibition of ATP-induced calcium flux at 1 uM measured for 30 secs at 0.4 secs intervals by Flou-4-AM dye based fluorescence assay relative to control; assay type: cell-based
T4 sequence (whole entry): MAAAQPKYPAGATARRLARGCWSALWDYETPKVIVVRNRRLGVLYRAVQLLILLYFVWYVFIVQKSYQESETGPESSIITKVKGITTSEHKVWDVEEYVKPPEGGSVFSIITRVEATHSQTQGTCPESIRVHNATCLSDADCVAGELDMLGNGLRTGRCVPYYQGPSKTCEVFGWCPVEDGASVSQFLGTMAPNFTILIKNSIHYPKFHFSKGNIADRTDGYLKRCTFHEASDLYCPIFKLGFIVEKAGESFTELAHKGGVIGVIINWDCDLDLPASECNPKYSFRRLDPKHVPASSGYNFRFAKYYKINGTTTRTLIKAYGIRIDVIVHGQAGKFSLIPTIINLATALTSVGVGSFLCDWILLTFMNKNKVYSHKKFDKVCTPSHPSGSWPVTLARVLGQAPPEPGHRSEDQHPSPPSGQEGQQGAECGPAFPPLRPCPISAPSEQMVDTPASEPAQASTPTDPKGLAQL

P2X purinoceptor 3 = molecular target: T5, P2X purinoceptor 3 (Homo sapiens, UniProt P56373); experiment: Antagonist activity at human P2X3 receptor expressed in 1321N1 cells assessed as inhibition of ATP-induced calcium flux measured for 30 secs at 0.4 secs intervals by Flou-4-AM dye based fluorescence assay; assay type: cell-based; settings: read-out: IC50
T5 sequence (P56373 whole entry): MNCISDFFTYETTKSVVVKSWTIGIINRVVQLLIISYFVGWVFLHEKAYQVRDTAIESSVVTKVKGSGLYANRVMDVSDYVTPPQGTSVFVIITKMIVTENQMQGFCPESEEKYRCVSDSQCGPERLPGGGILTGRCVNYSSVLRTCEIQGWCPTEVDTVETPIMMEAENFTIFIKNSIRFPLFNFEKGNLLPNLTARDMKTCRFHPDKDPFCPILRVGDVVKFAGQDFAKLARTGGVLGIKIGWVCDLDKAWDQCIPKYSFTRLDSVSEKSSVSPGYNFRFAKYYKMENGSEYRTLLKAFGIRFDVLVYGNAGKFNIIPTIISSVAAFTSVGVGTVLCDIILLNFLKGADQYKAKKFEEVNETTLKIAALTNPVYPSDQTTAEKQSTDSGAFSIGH

[7] = molecular target: T6, P2X purinoceptor 4 (Homo sapiens) (UniProt Q99571); experiment: Antagonist activity at human P2X4 receptor expressed in 1321N1 cells assessed as inhibition of ATP-induced calcium flux at 1 uM measured for 30 secs at 0.4 secs intervals by Flou-4-AM dye based fluorescence assay relative to control; assay type: cell-based
T6 sequence (whole entry): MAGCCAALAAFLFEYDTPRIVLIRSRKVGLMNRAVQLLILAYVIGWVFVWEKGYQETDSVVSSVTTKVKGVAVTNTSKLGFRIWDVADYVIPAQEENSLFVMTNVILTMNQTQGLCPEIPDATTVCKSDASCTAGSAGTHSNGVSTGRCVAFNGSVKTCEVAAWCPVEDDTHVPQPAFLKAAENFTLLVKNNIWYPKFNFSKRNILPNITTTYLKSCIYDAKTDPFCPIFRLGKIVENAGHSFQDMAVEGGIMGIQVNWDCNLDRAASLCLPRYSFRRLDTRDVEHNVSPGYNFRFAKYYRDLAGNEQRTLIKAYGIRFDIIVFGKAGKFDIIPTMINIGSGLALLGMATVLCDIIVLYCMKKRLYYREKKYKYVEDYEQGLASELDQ

Homo sapiens [8] = species on record: Homo sapiens; experiment: Antiproliferative activity against human TS15-88 cells at 50 uM after 24 hrs by MTS assay; assay type: functional, cell-based
Homo sapiens [9] = species on record: Homo sapiens; experiment: Antiproliferative activity against human TS15-88 cells at 50 uM after 72 hrs by MTS assay; assay type: functional, cell-based
[10] = Inhibition of neurosphere formation in human TS15-88 cells assessed as decrease in sphere size at 50 uM after 5 days by microscopic analysis relative to control; assay type: functional; settings: 120 h
[11] = Cytotoxicity against HEK293 cells expressing human P2X7 receptor assessed as cell survival at 10 uM by MTT assay relative to control; assay type: cell-based; settings: read-out: Survival
P2X purinoceptor 7 [12] = molecular target: T2, P2X purinoceptor 7; experiment: Antagonist activity at human P2X7 receptor in expressed in HEK293 cells assessed as inhibition of BzATP-induced EtBr uptake; assay type: cell-based
[13] = molecular target: T1, P2X purinoceptor 7 (Homo sapiens); experiment: Antagonist activity at P2X7 in LPS/IFN gamma differentiated human THP-1 cells assessed as inhibition of BzATP-induced IL-1beta release at 10 uM preincubated for 30 mins followed by BzATP stimulation for 30 mins by ELISA; assay type: cell-based
[14] = molecular target: T1, P2X purinoceptor 7 (Homo sapiens); experiment: Antagonist activity at P2X7 in LPS/IFN gamma differentiated human THP-1 cells assessed as inhibition of BzATP-induced IL-1beta release at 1 uM preincubated for 30 mins followed by BzATP stimulation for 30 mins by ELISA; assay type: cell-based
[15] = Effective permeability of the compound at 50 uM after 4 hrs by BBB-PAMPA method; assay type: ADME; settings: read-out: Peff
[16] = Kinetic solubility of the compound in PAMPA buffer at 50 uM by nepheolometry method; assay type: physicochemical
[17] = Kinetic solubility of the compound in PAMPA buffer at 25 uM by nepheolometry method; assay type: physicochemical
[18] = Kinetic solubility of the compound in PAMPA buffer at 12.5 uM by nepheolometry method; assay type: physicochemical
[19] = Metabolic stability in human liver microsomes assessed as parent compound remaining at 1 uM up to 30 mins in presence of NADPH by LC-MS/MS analysis; assay type: ADME, microsome; settings: read-out: Stability
[20] = Metabolic stability in rat liver microsomes assessed as parent compound remaining at 1 uM up to 30 mins in presence of NADPH by LC-MS/MS analysis; assay type: ADME, microsome; settings: read-out: Stability
[21] = Metabolic stability in mouse liver microsomes assessed as parent compound remaining at 1 uM up to 30 mins in presence of NADPH by LC-MS/MS analysis; assay type: ADME, microsome; settings: read-out: Stability
[22] = Antiproliferative activity against human TS15-88 cells after 24 to 72 hrs by MTS assay; assay type: functional, cell-based

SMILES	inhibition [1]	inhibition [2]	IC50 (P2X purinoceptor 7 [3])	IC50 (P2X purinoceptor 7 [4])	Activity (Homo sapiens [8])	Activity (Homo sapiens [9])	inhibition at 50 µM [10]	viability at 10 µM [11]	inhibition [13]	inhibition [14]	other results
COc1ccc(-c2ccc3c(NC(=O)CC45CC6CC(CC(C6)C4)C5)cccc3n2)cc1	97%	89%	18 nM	29 nM	inactive	Active	> 50%	90%	–	–	inhibition [5]: 25%; inhibition [6]: 3%; IC50 (P2X purinoceptor 3): 3000 nM; inhibition [7]: 17%
O=C1NC(=O)C(C2CCN(C(=O)c3ccc(Cl)c(C(F)(F)F)c3)CC2)C1Cc1ccc(OS(=O)(=O)c2cccc3cnccc23)cc1 (stereo not drawn)	–	–	–	–	–	–	–	–	–	–	IC50 (P2X purinoceptor 7 [12]): 54 nM
CCOC(=O)c1cc2c(NC(=O)C34CC5CC(CC(C5)C3)C4)cccc2n(Cc2ccc(OC)cc2)c1=O	88%	86%	62 nM	–	–	–	–	–	44%	7%	–
O=C(CC12CC3CC(CC(C3)C1)C2)Nc1cccc2nc(-c3ccc(CO)cc3)ccc12	98%	95%	3 nM	12 nM	Active	Active	> 50%	95%	–	–	Papp at 4 h, 50 µM [15]: 17.7 ×10⁻⁶ cm/s; Kinetic_solubility [16]: Soluble; Kinetic_solubility [17]: Soluble; Kinetic_solubility [18]: Soluble; remaining at 0.5 h, 1 µM [19]: 17.9%; remaining at 0.5 h, 1 µM [20]: 11.2%; remaining at 0.5 h, 1 µM [21]: 17%
O=C(CC12CC3CC(CC(C3)C1)C2)Nc1cccc2nc(-c3ccc(O)cc3)ccc12	95%	79%	8 nM	6 nM	Active	Active	> 50%	94%	–	–	IC50 [22]: 25600 nM; Papp at 4 h, 50 µM [15]: 16.4 ×10⁻⁶ cm/s; Kinetic_solubility [16]: Soluble; Kinetic_solubility [17]: Soluble; Kinetic_solubility [18]: Soluble; remaining at 0.5 h, 1 µM [19]: 21.5%; remaining at 0.5 h, 1 µM [20]: 12.9%; remaining at 0.5 h, 1 µM [21]: 14.5%
COc1ccc(CCN(C)CCCC(C#N)(c2ccc(OC)c(OC)c2)C(C)C)cc1OC (stereo not drawn)	–	–	–	–	–	–	–	–	–	–	remaining at 0.5 h, 1 µM [19]: 10.5%
CCCOC(=O)c1cc2c(NC(=O)C34CC5CC(CC(C5)C3)C4)cccc2n(Cc2ccc(OC)cc2)c1=O	87%	82%	263 nM	–	–	–	–	–	28%	11%	–
COC(=O)c1cc2c(NC(=O)C34CC5CC(CC(C5)C3)C4)cccc2n(Cc2ccc([N+](=O)[O-])cc2)c1=O	85%	61%	809 nM	–	–	–	–	–	42%	38%	–
Nc1ccc(-c2ccc3c(NC(=O)CC45CC6CC(CC(C6)C4)C5)cccc3n2)cc1	93%	85%	10 nM	19 nM	Active	Active	> 50%	98%	–	–	Papp at 4 h, 50 µM [15]: 24.9 ×10⁻⁶ cm/s; Kinetic_solubility [16]: Soluble; Kinetic_solubility [17]: Soluble; Kinetic_solubility [18]: Soluble; remaining at 0.5 h, 1 µM [19]: 15.5%; remaining at 0.5 h, 1 µM [20]: 10.6%; remaining at 0.5 h, 1 µM [21]: 13.3%
COC(=O)c1ccc(-c2ccc3c(NC(=O)CC45CC6CC(CC(C6)C4)C5)cccc3n2)cc1	95%	90%	7 nM	33 nM	Active	Active	> 50%	97%	–	–	IC50 [22]: 35600 nM
COC(=O)c1cc2c(NC(=O)C34CC5CC(CC(C5)C3)C4)cccc2n(Cc2ccc(OC)cc2)c1=O	87%	76%	120 nM	–	–	–	–	–	49%	inactive	–
Clc1cccc(-c2nnnn2Cc2cccnc2)c1Cl	–	–	–	–	–	–	–	–	–	–	IC50 (P2X purinoceptor 7 [12]): 300 nM
CC(=O)[C@H]1CC[C@H]2[C@@H]3CCC4=CC(=O)CC[C@]4(C)[C@H]3CC[C@]12C [PROGESTERONE]	–	–	–	–	–	–	–	–	–	–	IC50 (P2X purinoceptor 3): 1600 nM; Papp at 4 h, 50 µM [15]: 36.6 ×10⁻⁶ cm/s
N[C@H]1CCN(Cc2ccc(Cl)c(C(=O)NCC34CC5CC(CC(C5)C3)C4)c2)C1	–	–	–	–	–	–	–	–	–	–	IC50 (P2X purinoceptor 7 [12]): 85 nM
COC(=O)c1cc2c(NC(=O)C34CC5CC(CC(C5)C3)C4)cccc2n(Cc2ccc(F)cc2)c1=O	86%	66%	888 nM	–	–	–	–	–	35%	12%	–
